Data set [1] relates to bacteria that cause nosocomial pneumonia in the intensive care unit. The settings on record: continuous in vitro exposure to 200 ppm gNO; cited from earlier work.
The test system of data set [2] is NCI-H23. The data set can be described thus: MTS cell proliferation assay, 25,000 ppm gNO (Example 4), NCI-H23. The format is cell-based, human. An excerpt:
(§1) The purpose of this example is to illustrate the tumorcidal activity of high-dosage gNO. We examined the cellular sensitivity to 25,000 ppm of gNO on 5 non-small cell lung cancer (NSCLC) cells lines by an MTS cell proliferation assay.
Human lung cancer cell lines A549, NCI-H23, NCI-H460, HTB-58, H2170, and H441 (commercially available from American Type Culture Collection (“ATCC”), Manassas, Va.) were maintained in culture medium recommended by ATCC. All media were supplemented with 1% penicillin/streptomycin and 10% fetal bovine serum (commercially available from Invitrogen Gibco-BRL, Burlington, Ontario, Canada). […]
After 24 hours, the A549, NCI-H23, NCI-H460, HTB-58, H2170 and H441 cells were treated with 25,000 ppm gNO or air (control) for 1 minute, 3 minutes, 6 minutes, 9 minutes, 10 minutes, 20 minutes, and 30 minutes. Immediately following treatment, the viability of the cells was determined using a colorimetric MTS (3-(4,5-dimethylthiazol-2-yl)-5-(3-carboxymethoxyphenyl)-2-(4-sulfophenyl)-2H-tetrazolium, inner salt) cell proliferation assay (commercially available as the CellTiter 960 Aqueous One Solution Cell Proliferation Assay (MTS) from Promega, Madison, Wis., USA) according to the manufacturer's protocol. […] Absorbance was measured at 490 nm for each well using a micro-plate reader (commercially available from Dynex Technologies, Chantilly, Va., USA). […]

Data set [3] relates to H460-epithelial metastatic; large cell lung cancer cells. The data set can be described thus: MTS proliferation assay, H460 cells under continuous gNO exposure (Example 1). The format is cell-based, human. An excerpt:
(gNO) 200 ppm and 350 ppm compared to air (control) on the survival of a representative line of cancer cells. […] […] The plates then were removed and cell viability assessed by an MTS proliferation assay.
When exposed to 350 ppm of gNO, however, cancer cell survival rates decrease dramatically.

Data set [4] has as its system normal human fibroblast cells (NHLF). The data set can be described thus: Viability under 25,000 ppm gNO (Example 5), NHLF. In kind it is cell-based. How it is done: (§2) After 24 hours, the A549, NCI-H23, NCI-H460, HTB-58, H2170 and H441 cells were treated with 25,000 ppm gNO or air (control) for 1 minute, 3 minutes, 6 minutes, 9 minutes, 10 minutes, 20 minutes, and 30 minutes. Immediately following treatment, the viability of the cells was determined using a colorimetric MTS (3-(4,5-dimethylthiazol-2-yl)-5-(3-carboxymethoxyphenyl)-2-(4-sulfophenyl)-2H-tetrazolium, inner salt) cell proliferation assay (commercially available as the CellTiter 960 Aqueous One Solution Cell Proliferation Assay (MTS) from Promega, Madison, Wis., USA) according to the manufacturer's protocol. Briefly, 20 mL of MTS solution was added to each well and the cells were incubated for 2 hours at 37° C. Absorbance was measured at 490 nm for each well using a micro-plate reader (commercially available from Dynex Technologies, Chantilly, Va., USA). The relative percentage of cell survival (viability) was calculated by dividing the absorbance of treated cells by that of control cells for each experimental time point.
The purpose of this example is to illustrate the effects on normal human cell lines compared to the effects on cancerous cell lines of high-dosage gNO. The above study was repeated. […]

The subject of data set [5] is extra cellular M. tuberculosis. The data set can be described thus: Exposure of extracellular M. tuberculosis to NO. In kind it is cell-based. The settings on record: exogenous NO. An excerpt:
Further, it may be inferred that the large population of extracellular bacilli in patients with cavitary pulmonary tuberculosis are also vulnerable to exogenous (inhaled) NO.

In data set [6] the test system is infected wound on the skin. The data set can be described thus: Topical gNO applied to an infected wound on the skin. In kind it is in vivo. The settings on record: 200 ppm gNO topically applied. An excerpt:
For anti-inflammatory applications of high concentrations of gNO, it is hypothesized that the high dose of NO acts as a feedback loop to down regulate iNOS, and/or acts as a antioxidant on peroxynitrite and other reactive oxygen species and/or remove the stimulus such as bacterial load all leading to the amelioration of high levels of NO or its reactants resulting in damaging pathogenesis. This hypothesis is supported by testing results of the Applicant wherein 200 ppm gNO was topically applied to an infected wound on the skin. […] It is hypothesized that the body stopped producing the “bad” NO causing pathogenic inflammation.

Data set [7] has as its system non-small cell lung cancer (NSCLC) cells lines. The data set can be described thus: MTS cell proliferation assay, 25,000 ppm gNO, NSCLC cell lines taken together (Examples 4 and 5). In kind it is cell-based, human.
Excerpt: as §1
Human lung cancer cell lines A549, NCI-H23, NCI-H460, HTB-58, H2170, and H441 (commercially available from American Type Culture Collection (“ATCC”), Manassas, Va.) were maintained in culture medium recommended by ATCC. All media were supplemented with 1% penicillin/streptomycin and 10% fetal bovine serum (commercially available from Invitrogen Gibco-BRL, Burlington, Ontario, Canada). All cell lines were incubated in a humidified incubator at 37° C. supplied with 5% carbon dioxide. The cell lines were tested regularly for the absence of Mycoplasma infections. The cells were routinely maintained in 25 cm tissue culture flasks (commercially available from BD Biosciences Discovery Labware, Oakville, Ontario, Canada) and were harvested by 0.25% trypsin (commercially available from Invitrogen-Gibco-BRL) treatment when they were in a logarithmic phase of growth for all experiments. […]
as §2, with “Briefly, 20 mL of MTS solution was added to each well and the cells were incubated for 2 hours at 37° C.” left out, “point. […]” for “point.”
On the technique in general: Tetrazolium assays rely on reduction of a dye to a coloured formazan, in cell work by metabolically active cells.

[8] abbreviates: 350 ppm NO, 2 hours, RPMI medium.
The mark [9] stands for this setting: 350 ppm NO, 2 hours, RPMI medium, listed as NO.

These results are taken from US20070275100A1, “Use of gaseous nitric oxide as an anti-cancer agent” (priority 1998, published 2007).

SMILES strings stand for the structures. Several values for one entry are separate records, joined by “and”; a condition that tells them apart may be missing. Equal entries are not always repeated.

As a reminder, the viability is a per cent measure of how many cells are alive, often set against a control. With `[N]=O` [gNO, nitric oxide], in data set [1], the “time to cytocidal effect” value was no more than 5 h. Moreover, the “IC50 (exposure time)” value in data set [2] is “about 6 minutes”. This compound also yielded a viability at 25000 ppm in data set [2] (Homo sapiens, NCI-H23, 0.15 h, at 9 minutes) of roughly 24%. Also, in data set [3] (setting [8]), the Average is listed as 0.158 and the Survival entry was “about 0%”. Besides, the “Corrected Average” value in data set [3] (350 ppm NO, 2 hours, RPMI medium, blank subtracted) was found to be 0.037. Besides, in data set [3] (setting [9]), the “MTS assay reading, individual wells” value is 0.193 and 0.147 and 0.152 and 0.154 (2×) and 0.156 and 0.172 and 0.157 and 0.149 (2×) and 0.165 and 0.155 and 0.158 and 0.145 and 0.184 and 0.143; the Survival amounted to 2%. In data set [3] (350 ppm gNO, 24 hours continuous exposure, compared to air (control)), the survivability was found to be 2%. Moreover, the viability entry in data set [4] (after 6 minutes, FIG. 8 C) is given as “about 30%”. Further, in data set [4] (after 15 minutes of exposure), the “viability of normal lung fibroblasts” value was determined as 30%. Also, in data set [5], the mycobacteriocidal action result is “powerful dose-dependent and time-dependent mycobacteriocidal action”. Besides, in data set [6], the bacterial load result was “significantly reduced” and the “inflammatory bodies (histological results)” value was “significant reduction”. In addition, in data set [6] (compared to the infected control), the “serum NOX levels” value was “lower”. Moreover, the viability at 25000 ppm in data set [7] (Homo sapiens, 0.15 h, at 9 minutes, read-out: viability, mean value of the other three NSCLC lines) was determined as 10.7 ± 2.08%. The “cells killed, all five cancer cell lines” value in data set [7] (between 6 and 9 minutes, Example 4) was 75-95%. Further, the “cells killed, all five cancer cell lines” value in data set [7] (between about 6 and about 9 minutes, repeat study, Example 5) is listed as 75-95%.
